{"source": "patent US5470852A", "about": "“Tetrahydroprotoberberine quaternary ammonium compounds useful in for treating arrhythmia” (priority 1991, dated 1995)", "key": {"[1]": {"tested_on": "Langendorff's perfused rat hearts", "test": "Ischemia/reperfusion-induced arrhythmias, I13 in perfusate, Langendorff's perfused rat hearts", "type": "cell-based", "excerpt": "FIG. 2. Influence of I13 in perfusate on the time course of reperfusion-induced arrhythmias in Langendorff's perfused rat hearts"}, "[2]": {"tested_on": "left ventricular activity in rabbits", "test": "Monophasic action potential (MAP) recorded from left ventricle in rabbits", "type": "in vivo, rabbit", "excerpt": "The effectiveness of I13 in lengthening APD is confirmed by the influence on monophasic action potential (MAP) recorded from the left ventricular activity in rabbits."}, "[3]": {"tested_on": "guinea pig papillary muscles", "test": "Action potential of guinea pig papillary muscles under anoxia, high K+ and acidosis", "type": "cell-based", "excerpt": "Effect of I13 (μ mol/L) on estimates of action potential of guinea\npapillary muscles under anoxia, high K^+ and acidosis"}, "[4]": {"tested_on": "pathological papillary muscles in rats (cardiomyopathy)", "test": "Action potential in papillary muscles of rats with cardiomyopathy (L-thyrotoxin)", "type": "cell-based, rat", "excerpt": "Effect of I13 (μ mol/L) on estimates of action potential induced in\nnormal and pathological papillary muscles in rats."}, "[5]": {"tested_on": "various experimental arrhythmic models", "test": "Overall antiarrhythmic, anti-VF and anti-ischemic activity (summary)", "type": "in vivo"}, "[6]": {"tested_on": "anaesthetized rats", "conditions": "for Arrhythmic scores / Lethal risk / Antiarrhythmic effect: X ± SD; for Incidence of VF: n=10; for Death / animals with VF / animals without VF: of n=10"}, "[7]": {"conditions": "anoxia, high K+ and acidosis, I13 concentration not given"}, "[8]": {"conditions": "cardiomyopathy, n=5, I13 concentration not given"}}, "note": "Read-outs that look alike come from different tables or passages of the source.", "data": [{"smiles": "COc1ccc2c(c1OC)C[N+]1(Cc3ccc(Cl)cc3)CCc3cc4c(cc3C1C2)OCO4", "note": "(stereo not shown) [Compound I13, 7-(4-chlorobenzyl)-5,8,13,13a-tetrahydroberberine chloride]", "values": [{"measurement": "protection against VT and VF induced by ischemia and reperfusion", "setting": "[1]; 3 μmol/L", "value": "effective protection against the VT and VF"}, {"measurement": "ke", "setting": "[1]; 3 μmol/L (FIG. 2)", "value": 0.030, "unit": "min⁻¹"}, {"measurement": "ke", "setting": "[1]; 10 μmol/L (FIG. 2)", "value": 0.020, "unit": "min⁻¹"}, {"measurement": "lengthening of APD (MAP)", "setting": "[2]", "value": "confirmed"}, {"measurement": "Vmax under anoxia, high K+ and acidosis", "setting": "[3]", "value": "lowered"}, {"measurement": "RP", "setting": "[3]; anoxia, high K+ and acidosis, I13 (μmol/L, concentration not given), n=8", "value": "85 ± 2", "unit": "mv"}, {"measurement": "APA", "setting": "[3]; [7]", "value": "116 ± 2", "unit": "mv"}, {"measurement": "APD20", "setting": "[3]; [7]", "value": "78 ± 13", "unit": "ms"}, {"measurement": "APD50", "setting": "[3]; [7]", "value": "156 ± 20", "unit": "ms"}, {"measurement": "APD90", "setting": "[3]; [7]", "value": "170 ± 21", "unit": "ms"}, {"measurement": "ERP", "setting": "[3]; [7]", "value": "186 ± 19", "unit": "ms"}, {"measurement": "Vmax", "setting": "[3]; [7]", "value": "190 ± 40", "unit": "v/s"}, {"measurement": "Vmax in cardiomyopathy model", "setting": "[4]; L-thyrotoxin, rats", "value": "completely inhibited"}, {"measurement": "APA", "setting": "[4]; [8]", "value": "104 ± 7", "unit": "mv"}, {"measurement": "APD20", "setting": "[4]; [8]", "value": "12 ± 3", "unit": "ms"}, {"measurement": "APD50", "setting": "[4]; [8]", "value": "32 ± 4", "unit": "ms"}, {"measurement": "APD90", "setting": "[4]; [8]", "value": "65 ± 5", "unit": "ms"}, {"measurement": "ERP", "setting": "[4]; [8]", "value": "66 ± 6", "unit": "ms"}, {"measurement": "RP", "setting": "[4]; [8]", "value": "81 ± 5", "unit": "mv"}, {"measurement": "Vmax", "setting": "[4]; [8]", "value": "160 ± 50", "unit": "v/s"}, {"measurement": "inhibition of ventricular fibrillation and myocardial ischemia", "setting": "[5]; in vivo", "value": "inhibits ventricular fibrillation and myocardial ischemia"}, {"measurement": "protection against arrhythmia, VF and myocardial ischemic injury", "setting": "[5]; in vivo", "value": "advanced protection against arrhythmia, ventricular fibrillation (VF) and myocardial ischemic injury"}, {"measurement": "antiarrhythmic effects", "setting": "[5]; various experimental arrhythmic models", "value": "marked antiarrhythmic effects"}, {"measurement": "anti-arrhythmic activity relative to lidocaine", "setting": "[6]; i.v.", "value": 10, "unit": "times"}, {"measurement": "inhibition of arrhythmias and VF induced by left coronary artery ligation", "setting": "[6]; i.v. or p.o.", "value": "significantly inhibited"}, {"measurement": "Arrhythmic scores", "setting": "[6]; iv 0.1 mg/kg", "value": "2.4 ± 2.2"}, {"measurement": "Lethal risk", "setting": "[6]; iv 0.1 mg/kg", "value": "75 ± 30"}, {"measurement": "Antiarrhythmic effect", "setting": "[6]; iv 0.1 mg/kg, coronary occlusion 5 min", "value": "0.25 ± 0.26"}, {"measurement": "Antiarrhythmic effect", "setting": "[6]; iv 0.1 mg/kg, coronary occlusion 10 min", "value": "1.7 ± 2.1"}, {"measurement": "Incidence of VF", "setting": "[6]; iv 0.1 mg/kg", "value": 30, "unit": "%"}, {"measurement": "Death", "setting": "[6]; iv 0.1 mg/kg", "value": 3}, {"measurement": "animals with VF", "setting": "[6]; iv 0.1 mg/kg", "value": 3}, {"measurement": "animals without VF", "setting": "[6]; iv 0.1 mg/kg", "value": 4}, {"measurement": "Antiarrhythmic effect", "setting": "[6]; iv 0.1 mg/kg, reperfusion 0.17 min", "value": "2.2 ± 2.5"}, {"measurement": "Antiarrhythmic effect", "setting": "[6]; iv 0.1 mg/kg, reperfusion 0.33 min", "value": "2.1 ± 2.1"}, {"measurement": "Antiarrhythmic effect", "setting": "[6]; iv 0.1 mg/kg, reperfusion 0.5 min", "value": "2.4 ± 2.2"}, {"measurement": "Antiarrhythmic effect", "setting": "[6]; iv 0.1 mg/kg, reperfusion 1 min", "value": "2.3 ± 2.6"}, {"measurement": "Antiarrhythmic effect", "setting": "[6]; iv 0.1 mg/kg, reperfusion 2 min", "value": "1.6 ± 2.1"}, {"measurement": "Antiarrhythmic effect", "setting": "[6]; iv 0.1 mg/kg, reperfusion 3 min", "value": "1.6 ± 2.1"}, {"measurement": "Antiarrhythmic effect", "setting": "[6]; iv 0.1 mg/kg, reperfusion 5 min", "value": "1.6 ± 2.1"}, {"measurement": "Antiarrhythmic effect", "setting": "[6]; iv 0.1 mg/kg, reperfusion 6 min", "value": "2.4 ± 3.4"}, {"measurement": "Antiarrhythmic effect", "setting": "[6]; iv 0.1 mg/kg, reperfusion 7 min", "value": "0.20 ± 0.26"}, {"measurement": "Antiarrhythmic effect", "setting": "[6]; iv 0.1 mg/kg, reperfusion 10 min", "value": "0.42 ± 0.19"}, {"measurement": "Antiarrhythmic effect", "setting": "[6]; iv 0.1 mg/kg, reperfusion 15 min", "value": "0.42 ± 0.19"}, {"measurement": "Antiarrhythmic effect", "setting": "[6]; iv 0.1 mg/kg, reperfusion 25 min", "value": "0.43 ± 0.19"}, {"measurement": "Arrhythmic scores", "setting": "[6]; iv 0.3 mg/kg", "value": "1.2 ± 1.7"}, {"measurement": "Lethal risk", "setting": "[6]; iv 0.3 mg/kg", "value": "57 ± 26"}, {"measurement": "Antiarrhythmic effect", "setting": "[6]; iv 0.3 mg/kg, coronary occlusion 5 min", "value": "0.6 ± 1.3"}, {"measurement": "Antiarrhythmic effect", "setting": "[6]; iv 0.3 mg/kg, coronary occlusion 10 min", "value": "0.9 ± 1.9"}, {"measurement": "Incidence of VF", "setting": "[6]; iv 0.3 mg/kg", "value": 20, "unit": "%"}, {"measurement": "Death", "setting": "[6]; iv 0.3 mg/kg", "value": 1}, {"measurement": "animals with VF", "setting": "[6]; iv 0.3 mg/kg", "value": 2}, {"measurement": "animals without VF", "setting": "[6]; iv 0.3 mg/kg", "value": 7}, {"measurement": "Antiarrhythmic effect", "setting": "[6]; iv 0.3 mg/kg, reperfusion 0.17 min", "value": "0.9 ± 1.3"}, {"measurement": "Antiarrhythmic effect", "setting": "[6]; iv 0.3 mg/kg, reperfusion 0.33 min", "value": "1.3 ± 2.0"}, {"measurement": "Antiarrhythmic effect", "setting": "[6]; iv 0.3 mg/kg, reperfusion 0.5 min", "value": "1.2 ± 1.7"}, {"measurement": "Antiarrhythmic effect", "setting": "[6]; iv 0.3 mg/kg, reperfusion 1 min", "value": "0.8 ± 1.8"}, {"measurement": "Antiarrhythmic effect", "setting": "[6]; iv 0.3 mg/kg, reperfusion 2 min", "value": "0.8 ± 1.8"}, {"measurement": "Antiarrhythmic effect", "setting": "[6]; iv 0.3 mg/kg, reperfusion 3 min", "value": "0.22 ± 0.26"}, {"measurement": "Antiarrhythmic effect", "setting": "[6]; iv 0.3 mg/kg, reperfusion 5 min", "value": "0.6 ± 1.2"}, {"measurement": "Antiarrhythmic effect", "setting": "[6]; iv 0.3 mg/kg, reperfusion 6 min", "value": "0.8 ± 1.8"}, {"measurement": "Antiarrhythmic effect", "setting": "[6]; iv 0.3 mg/kg, reperfusion 7 min", "value": "0.8 ± 1.8"}, {"measurement": "Antiarrhythmic effect", "setting": "[6]; iv 0.3 mg/kg, reperfusion 10 min", "value": "0.8 ± 1.8"}, {"measurement": "Antiarrhythmic effect", "setting": "[6]; iv 0.3 mg/kg, reperfusion 15 min", "value": "1.0 ± 2.2"}, {"measurement": "Antiarrhythmic effect", "setting": "[6]; iv 0.3 mg/kg, reperfusion 25 min", "value": "0.2 ± 0.4"}, {"measurement": "Arrhythmic scores", "setting": "[6]; iv 1.0 mg/kg", "value": "1.3 ± 1.7"}, {"measurement": "Lethal risk", "setting": "[6]; iv 1.0 mg/kg", "value": "41 ± 0"}, {"measurement": "Antiarrhythmic effect", "setting": "[6]; iv 1.0 mg/kg, coronary occlusion 5 min", "value": "0.4 ± 0.2"}, {"measurement": "Antiarrhythmic effect", "setting": "[6]; iv 1.0 mg/kg, coronary occlusion 10 min", "value": "0.4 ± 0.2"}, {"measurement": "Incidence of VF", "setting": "[6]; iv 1.0 mg/kg", "value": 0, "unit": "%"}, {"measurement": "Death", "setting": "[6]; iv 1.0 mg/kg", "value": 0}, {"measurement": "animals with VF", "setting": "[6]; iv 1.0 mg/kg", "value": 0}, {"measurement": "animals without VF", "setting": "[6]; iv 1.0 mg/kg", "value": 10}]}]}
